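Cells were grown in 96-well plates and exposed to each compound for 48 hours at five concentrations; endpoints were interpolated linearly between bracketing concentrations, or set to the highest concentration if not reached. TGI is the concentration that stops growth completely.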
Tests used:
Experiment in all cases: inhibition of tumour cell growth, NCI panel, 48 h
RXF 393 renal = test system: RXF 393 renal
RPMI-8226 leukemia = test system: RPMI-8226 leukemia
KM12 colon = test system: KM12 colon
OVCAR-8 ovarian = test system: OVCAR-8 ovarian
SK-MEL-2 melanoma = test system: SK-MEL-2 melanoma
BT-549 breast = test system: BT-549 breast
CAKI-1 renal = test system: CAKI-1 renal
CCRF-CEM leukemia = test system: CCRF-CEM leukemia
MOLT-4 leukemia = test system: MOLT-4 leukemia
SN12C renal = test system: SN12C renal
HS 578T breast = test system: HS 578T breast
SK-MEL-28 melanoma = test system: SK-MEL-28 melanoma
PC-3 prostate = test system: PC-3 prostate
SF-295 CNS = test system: SF-295 CNS
UO-31 renal = test system: UO-31 renal
SNB-19 CNS = test system: SNB-19 CNS
NCI/ADR-RES ovarian = test system: NCI/ADR-RES ovarian
ACHN renal = test system: ACHN renal
M14 melanoma = test system: M14 melanoma
NCI-H226 lung = test system: NCI-H226 lung
HCT-116 colon = test system: HCT-116 colon
HOP-92 NSCLC = test system: HOP-92 NSCLC
786-0 renal = test system: 786-0 renal
HCT-15 colon = test system: HCT-15 colon
HCC-2998 colon = test system: HCC-2998 colon
SF-268 CNS = test system: SF-268 CNS
LOX IMVI melanoma = test system: LOX IMVI melanoma
COLO 205 colon = test system: COLO 205 colon
SK-MEL-5 melanoma = test system: SK-MEL-5 melanoma
SK-OV-3 ovarian = test system: SK-OV-3 ovarian
SF-539 CNS = test system: SF-539 CNS
A498 renal = test system: A498 renal
TK-10 renal = test system: TK-10 renal
SW-620 colon = test system: SW-620 colon
OVCAR-3 ovarian = test system: OVCAR-3 ovarian
HOP-62 NSCLC = test system: HOP-62 NSCLC
UACC-257 melanoma = test system: UACC-257 melanoma
IGROV1 ovarian = test system: IGROV1 ovarian
K-562 leukemia = test system: K-562 leukemia
MCF7 breast = test system: MCF7 breast
MDA-MB-435 = test system: MDA-MB-435
OVCAR-5 ovarian = test system: OVCAR-5 ovarian
SNB-75 CNS = test system: SNB-75 CNS
NCI-H460 lung = test system: NCI-H460 lung
MDA-MB-231 breast = test system: MDA-MB-231 breast
OVCAR-4 ovarian = test system: OVCAR-4 ovarian
MDA-N = test system: MDA-N
A549 NSCLC = test system: A549 NSCLC
EKVX NSCLC = test system: EKVX NSCLC
HL-60(TB) leukemia = test system: HL-60(TB) leukemia
DU-145 prostate = test system: DU-145 prostate
SR leukemia = test system: SR leukemia
T-47D breast = test system: T-47D breast
HT29 colon = test system: HT29 colon
UACC-62 melanoma = test system: UACC-62 melanoma
U251 CNS = test system: U251 CNS
NCI-H23 lung = test system: NCI-H23 lung
NCI-H522 lung = test system: NCI-H522 lung

O=C1c2cc3ccccc3cc2C2(c3ccc(Cl)cc3)NCCN12 (stereo not drawn)
TGI (RXF 393 renal): 42.3 µM | TGI (RPMI-8226 leukemia): 98.2 µM | TGI (KM12 colon): 49.3 µM | TGI (OVCAR-8 ovarian): > 100 µM | TGI (SK-MEL-2 melanoma): 45.5 µM | TGI (BT-549 breast): > 100 µM | TGI (CAKI-1 renal): > 100 µM | TGI (CCRF-CEM leukemia): > 100 µM | TGI (MOLT-4 leukemia): > 100 µM | TGI (SN12C renal): > 100 µM | TGI (HS 578T breast): > 100 µM | TGI (SK-MEL-28 melanoma): > 100 µM | TGI (PC-3 prostate): 94.9 µM | TGI (SF-295 CNS): 62 µM | TGI (UO-31 renal): > 100 µM | TGI (SNB-19 CNS): 68.9 µM | TGI (NCI/ADR-RES ovarian): > 100 µM | TGI (ACHN renal): > 100 µM | TGI (M14 melanoma): 92.7 µM | TGI (NCI-H226 lung): > 100 µM | TGI (HCT-116 colon): 45 µM | TGI (HOP-92 NSCLC): > 100 µM | TGI (786-0 renal): 99.2 µM | TGI (HCT-15 colon): > 100 µM | TGI (HCC-2998 colon): 60.4 µM | TGI (SF-268 CNS): > 100 µM | TGI (LOX IMVI melanoma): 56.3 µM | TGI (COLO 205 colon): 36.3 µM | TGI (SK-MEL-5 melanoma): 40.4 µM | TGI (SK-OV-3 ovarian): 68.9 µM | TGI (SF-539 CNS): 61.5 µM | TGI (A498 renal): > 100 µM | TGI (TK-10 renal): > 100 µM | TGI (SW-620 colon): > 100 µM | TGI (OVCAR-3 ovarian): 53.8 µM | TGI (HOP-62 NSCLC): 86.3 µM | TGI (UACC-257 melanoma): > 100 µM | TGI (IGROV1 ovarian): > 100 µM | TGI (K-562 leukemia): > 100 µM | TGI (MCF7 breast): 77.9 µM | TGI (MDA-MB-435): > 100 µM | TGI (OVCAR-5 ovarian): 81 µM | TGI (SNB-75 CNS): > 100 µM | TGI (NCI-H460 lung): > 100 µM | TGI (MDA-MB-231 breast): > 100 µM | TGI (OVCAR-4 ovarian): > 100 µM | TGI (MDA-N): > 100 µM | TGI (A549 NSCLC): 87.4 µM | TGI (EKVX NSCLC): 95.9 µM | TGI (HL-60(TB) leukemia): 80 µM | TGI (DU-145 prostate): > 100 µM | TGI (SR leukemia): > 100 µM | TGI (T-47D breast): > 100 µM | TGI (HT29 colon): > 100 µM | TGI (UACC-62 melanoma): 55.4 µM | TGI (U251 CNS): > 100 µM | TGI (NCI-H23 lung): 64.1 µM

O=C(CCc1ccc(O)c(O)c1)NCCc1cc(O)cc(OCc2ccccc2)c1
TGI (RXF 393 renal): > 100 µM | TGI (RPMI-8226 leukemia): > 100 µM | TGI (KM12 colon): > 100 µM | TGI (SK-MEL-2 melanoma): > 100 µM | TGI (BT-549 breast): 86 µM | TGI (CAKI-1 renal): > 100 µM | TGI (CCRF-CEM leukemia): 75.9 µM | TGI (MOLT-4 leukemia): > 100 µM | TGI (SN12C renal): > 100 µM | TGI (HS 578T breast): > 100 µM | TGI (SK-MEL-28 melanoma): > 100 µM | TGI (PC-3 prostate): > 100 µM | TGI (SF-295 CNS): > 100 µM | TGI (UO-31 renal): 71 µM | TGI (SNB-19 CNS): 36.7 µM | TGI (NCI/ADR-RES ovarian): > 100 µM | TGI (ACHN renal): 46.9 µM | TGI (M14 melanoma): > 100 µM | TGI (NCI-H226 lung): > 100 µM | TGI (HCT-116 colon): > 100 µM | TGI (HOP-92 NSCLC): > 100 µM | TGI (786-0 renal): > 100 µM | TGI (HCT-15 colon): 58.4 µM | TGI (HCC-2998 colon): 40.7 µM | TGI (SF-268 CNS): > 100 µM | TGI (LOX IMVI melanoma): > 100 µM | TGI (COLO 205 colon): > 100 µM | TGI (SK-MEL-5 melanoma): 32.2 µM | TGI (SK-OV-3 ovarian): > 100 µM | TGI (SF-539 CNS): > 100 µM | TGI (A498 renal): > 100 µM | TGI (TK-10 renal): > 100 µM | TGI (SW-620 colon): > 100 µM | TGI (NCI-H522 lung): > 100 µM | TGI (OVCAR-3 ovarian): > 100 µM | TGI (HOP-62 NSCLC): > 100 µM | TGI (UACC-257 melanoma): > 100 µM | TGI (IGROV1 ovarian): > 100 µM | TGI (K-562 leukemia): > 100 µM | TGI (MCF7 breast): > 100 µM | TGI (MDA-MB-435): > 100 µM | TGI (OVCAR-5 ovarian): > 100 µM | TGI (SNB-75 CNS): > 100 µM | TGI (NCI-H460 lung): 51.7 µM | TGI (MDA-MB-231 breast): > 100 µM | TGI (MDA-N): 58.7 µM | TGI (A549 NSCLC): > 100 µM | TGI (EKVX NSCLC): > 100 µM | TGI (HL-60(TB) leukemia): 38.2 µM | TGI (DU-145 prostate): > 100 µM | TGI (SR leukemia): 83.4 µM | TGI (T-47D breast): > 100 µM | TGI (HT29 colon): > 100 µM | TGI (UACC-62 melanoma): > 100 µM | TGI (U251 CNS): > 100 µM | TGI (NCI-H23 lung): 80 µM
